The source of these data is ChEMBL document CHEMBL4049404, “Discovery of (R)-1-(3-(4-Amino-3-(3-chloro-4-(pyridin-2-ylmethoxy)phenyl)-1H-pyrazolo[3,4-d]pyrimidin-1-yl)piperidin-1-yl)prop-2-en-1-one (CHMFL-EGFR-202) as a Novel Irreversible EGFR Mutant Kinase Inhibitor with a Distinct Binding Mode” (J Med Chem, 2017).

A short description of series [1]: Apparent plasma clearance in Sprague-Dawley rat after 24 hrs at 10 mg/kg, po. The series is classed as ADME, organism-based.
Series [2] relates to Rattus norvegicus. The series is described as follows: AUC (0 to t) in Sprague-Dawley rat plasma at 10 mg/kg, po after 24 hrs. The series is classed as ADME, organism-based. The arrangement: dose 10 mg/kg, time < 24 hr, route oral. The following applies: in vivo.
Series [3] concerns the target Tyrosine-protein kinase BTK (Homo sapiens, UniProt Q06187). The series is described as follows: Inhibition of full-length recombinant human His-tagged BTK cytoplasmic domain expressed in baculovirus by Z'-LYTE assay.
In series [4] the target is T1, Receptor tyrosine-protein kinase erbB-4 (Homo sapiens, UniProt Q15303). The experiment in a line: Inhibition of recombinant human N-terminal GST-tagged ERBB4 cytoplasmic domain (708 to 993 residues) expressed in baculovirus by Z'-LYTE assay.
The nature of series [5]: MRT (0 to infinity) in Sprague-Dawley rat plasma at 1 mg/kg, iv after 8 hrs. The series is classed as ADME, organism-based.
Series [6] addresses Receptor tyrosine-protein kinase erbB-2 (Homo sapiens, UniProt P04626). The series is described as follows: Inhibition of recombinant human […] ERBB2 cytoplasmic domain (676 to 1255 residues) expressed in baculovirus by Z'-LYTE assay.
Series [7] addresses T2, Epidermal growth factor receptor (Homo sapiens, UniProt P00533). The series is described as follows: Inhibition of wild-type EGFR in human NCI-H2122 cells assessed as reduction in STAT3 phosphorylation at Y705 site at 0.01 to 3 uM by Western blot analysis. The series is classed as cell-based. (In western blotting, separated proteins are transferred to a membrane and probed.)

The target in series [8] is T2, Epidermal growth factor receptor. The experiment in a line: Inhibition of wild-type EGFR in human A549 cells assessed as growth inhibition after 72 hrs by CellTiter-Glo assay. The series is classed as cell-based. To be noted: a549, 72 h. Background: ATP-based viability assays read luminescence as a measure of living cells.
Series [9] concerns the target Serine/threonine-protein kinase 10 (Homo sapiens) (UniProt O94804). The series is described as follows: Binding affinity to wild-type human LOK expressed in bacterial system assessed as control score at 1 uM by KINOMEScan assay.
For series [10], the target named is Epidermal growth factor receptor (Homo sapiens, UniProt P00533, L858R/T790M). The experiment in a line: Inhibition of EGFR L858R/T790M mutant in human NCI-H1975 cells assessed as reduction in ERK phosphorylation at Thr202/Tyr204 measured after 4 hrs by Western blot analysis. The series is classed as cell-based.
Series [11] addresses T2, Epidermal growth factor receptor. The series is described as follows: Inhibition of wild-type EGFR in human NCI-H2122 cells assessed as reduction in Akt phosphorylation at 473 site at 0.01 to 3 uM by Western blot analysis. The series is classed as cell-based.
The target of series [12] is Epidermal growth factor receptor (Homo sapiens, UniProt P00533, EX19DEL). The series is described as follows: Inhibition of EGFR exon 19 deletion mutant in human PC9 cells assessed as reduction in ERK phosphorylation at Thr202/Tyr204 measured after 4 hrs by Western blot analysis. The series is classed as cell-based.
Series [13] deals with Cytoplasmic tyrosine-protein kinase BMX (Homo sapiens, UniProt P51813). The series is described as follows: Inhibition of full-length recombinant human His-tagged BMX expressed in baculovirus by Z'-LYTE assay.
For series [14], the target named is T3, Dual specificity mitogen-activated protein kinase kinase 1 (Homo sapiens, UniProt Q02750). The series is described as follows: Inhibition of full-length recombinant human His-tagged MEK1 expressed in baculovirus by Z'-LYTE assay.
For series [15], the target named is T3, Dual specificity mitogen-activated protein kinase kinase 1. The experiment in a line: Binding affinity to full-length human MEK1 expressed in mammalian system assessed as control score at 1 uM by KINOMEScan assay.
In series [16] the target is T1, Receptor tyrosine-protein kinase erbB-4. The series is described as follows: Binding affinity to wild-type human ERBB4 expressed in bacterial system assessed as control score at 1 uM by KINOMEScan assay.
Series [17] deals with Dual specificity mitogen-activated protein kinase kinase 5 (Homo sapiens) (UniProt Q13163). The series is described as follows: Binding affinity to wild-type human MEK5 expressed in mammalian system assessed as control score at 1 uM by KINOMEScan assay.
Series [18] in a line: Oral bioavailability in Sprague-Dawley rat at 10 mg/kg after 24 hrs. The series is classed as ADME, organism-based. To be noted: in vivo.
For series [19], the system named is Rattus norvegicus. The series is described as follows: AUC (0 to infinity) in Sprague-Dawley rat plasma at 10 mg/kg, po after 24 hrs. On the set-up: dose 10 mg/kg, time infinity, route oral. The following applies: in vivo. The series is classed as ADME, organism-based.

As a reminder, the CL/F is the apparent clearance, not corrected for the fraction that reaches the circulation. For orientation: IC50 means the concentration that inhibits the measured activity by half. A word on the MRT inf: it is a mean duration of stay, worked out from the concentration-time curve. Usually GI50 stands for the concentration giving 50% growth inhibition. A word on the EC50: it is the concentration that produces a half-maximal response. Usually bioavailability stands for dose-corrected exposure relative to a reference, in per cent. High values mean good availability, low ones poor availability. A word on the AUC: it is the area under the concentration-time curve, a measure of exposure. Higher therefore signals more exposure.

T2 sequence (P00533 whole entry): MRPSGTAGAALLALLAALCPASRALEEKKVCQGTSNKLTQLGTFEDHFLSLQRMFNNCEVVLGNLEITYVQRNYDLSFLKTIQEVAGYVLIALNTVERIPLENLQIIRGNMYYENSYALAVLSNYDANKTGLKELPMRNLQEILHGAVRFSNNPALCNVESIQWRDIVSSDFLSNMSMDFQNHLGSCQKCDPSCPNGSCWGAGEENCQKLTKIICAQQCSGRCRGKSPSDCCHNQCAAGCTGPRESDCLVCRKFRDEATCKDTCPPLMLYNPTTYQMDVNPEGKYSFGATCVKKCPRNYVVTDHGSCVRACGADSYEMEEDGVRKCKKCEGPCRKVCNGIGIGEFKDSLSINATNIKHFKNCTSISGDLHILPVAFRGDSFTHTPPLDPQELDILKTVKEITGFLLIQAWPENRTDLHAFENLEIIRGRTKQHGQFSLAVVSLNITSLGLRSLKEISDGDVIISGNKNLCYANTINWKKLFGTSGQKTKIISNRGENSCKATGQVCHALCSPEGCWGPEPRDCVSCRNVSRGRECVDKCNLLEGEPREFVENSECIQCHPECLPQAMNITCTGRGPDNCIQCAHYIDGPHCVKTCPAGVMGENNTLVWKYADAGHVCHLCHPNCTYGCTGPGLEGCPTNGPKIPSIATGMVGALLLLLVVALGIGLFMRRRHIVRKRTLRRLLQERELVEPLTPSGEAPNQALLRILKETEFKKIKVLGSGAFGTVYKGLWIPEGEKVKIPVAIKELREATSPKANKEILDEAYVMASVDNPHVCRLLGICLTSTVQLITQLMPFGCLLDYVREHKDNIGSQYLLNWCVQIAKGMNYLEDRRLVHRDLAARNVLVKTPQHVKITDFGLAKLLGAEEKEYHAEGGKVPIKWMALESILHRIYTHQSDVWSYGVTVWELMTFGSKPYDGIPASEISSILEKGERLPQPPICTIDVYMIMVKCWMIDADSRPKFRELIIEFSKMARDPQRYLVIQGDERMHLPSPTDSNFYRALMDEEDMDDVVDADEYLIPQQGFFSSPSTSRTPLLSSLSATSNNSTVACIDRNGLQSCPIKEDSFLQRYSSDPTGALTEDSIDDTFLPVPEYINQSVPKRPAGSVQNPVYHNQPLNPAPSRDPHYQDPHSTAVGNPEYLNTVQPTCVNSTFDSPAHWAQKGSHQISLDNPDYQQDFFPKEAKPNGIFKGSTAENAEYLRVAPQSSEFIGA
T1 sequence (Q15303 whole entry, the tested form may be a part): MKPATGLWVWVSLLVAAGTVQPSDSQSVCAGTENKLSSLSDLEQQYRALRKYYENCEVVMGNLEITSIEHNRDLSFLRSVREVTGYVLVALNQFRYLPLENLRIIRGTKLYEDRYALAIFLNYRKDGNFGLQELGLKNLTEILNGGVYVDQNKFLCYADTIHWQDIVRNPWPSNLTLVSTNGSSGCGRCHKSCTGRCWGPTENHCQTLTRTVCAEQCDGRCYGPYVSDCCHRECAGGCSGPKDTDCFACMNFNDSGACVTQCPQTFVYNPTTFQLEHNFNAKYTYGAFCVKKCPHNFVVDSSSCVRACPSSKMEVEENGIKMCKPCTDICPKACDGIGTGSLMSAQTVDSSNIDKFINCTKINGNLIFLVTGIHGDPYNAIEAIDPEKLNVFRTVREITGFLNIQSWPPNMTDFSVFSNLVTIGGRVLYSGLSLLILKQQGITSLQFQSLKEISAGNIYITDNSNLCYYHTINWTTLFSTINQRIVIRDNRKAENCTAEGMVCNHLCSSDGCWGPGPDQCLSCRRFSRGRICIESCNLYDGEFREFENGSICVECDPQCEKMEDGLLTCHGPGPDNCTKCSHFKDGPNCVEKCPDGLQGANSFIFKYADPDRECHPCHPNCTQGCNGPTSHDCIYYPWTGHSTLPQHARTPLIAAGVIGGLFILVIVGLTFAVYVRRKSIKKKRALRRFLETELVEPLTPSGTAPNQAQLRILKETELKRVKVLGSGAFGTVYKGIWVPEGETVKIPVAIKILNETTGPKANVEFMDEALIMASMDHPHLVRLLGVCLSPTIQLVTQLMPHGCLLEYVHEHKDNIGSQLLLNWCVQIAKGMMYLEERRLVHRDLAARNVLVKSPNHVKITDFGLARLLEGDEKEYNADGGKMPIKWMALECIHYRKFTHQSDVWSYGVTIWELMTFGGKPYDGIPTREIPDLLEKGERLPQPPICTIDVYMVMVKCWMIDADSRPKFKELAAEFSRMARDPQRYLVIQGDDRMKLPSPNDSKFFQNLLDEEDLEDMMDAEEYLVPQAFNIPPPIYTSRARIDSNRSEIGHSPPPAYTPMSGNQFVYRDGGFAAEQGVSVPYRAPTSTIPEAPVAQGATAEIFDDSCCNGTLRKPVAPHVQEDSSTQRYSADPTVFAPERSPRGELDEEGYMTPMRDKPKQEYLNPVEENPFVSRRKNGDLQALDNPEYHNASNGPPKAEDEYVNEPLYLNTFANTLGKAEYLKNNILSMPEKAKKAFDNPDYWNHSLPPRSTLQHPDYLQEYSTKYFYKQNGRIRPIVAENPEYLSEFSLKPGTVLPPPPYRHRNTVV
T3 sequence (Q02750 whole entry): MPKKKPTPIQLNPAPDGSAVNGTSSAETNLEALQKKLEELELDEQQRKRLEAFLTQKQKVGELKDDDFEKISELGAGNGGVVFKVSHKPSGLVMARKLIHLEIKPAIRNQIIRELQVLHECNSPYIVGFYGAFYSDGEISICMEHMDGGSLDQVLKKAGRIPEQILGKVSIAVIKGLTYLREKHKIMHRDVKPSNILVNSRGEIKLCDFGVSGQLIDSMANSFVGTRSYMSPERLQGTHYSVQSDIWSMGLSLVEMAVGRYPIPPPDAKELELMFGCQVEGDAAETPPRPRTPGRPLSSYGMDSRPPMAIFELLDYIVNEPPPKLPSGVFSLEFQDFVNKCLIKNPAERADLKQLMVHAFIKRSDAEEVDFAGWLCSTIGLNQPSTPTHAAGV
Sequence of Cytoplasmic tyrosine-protein kinase BMX (P51813 whole entry): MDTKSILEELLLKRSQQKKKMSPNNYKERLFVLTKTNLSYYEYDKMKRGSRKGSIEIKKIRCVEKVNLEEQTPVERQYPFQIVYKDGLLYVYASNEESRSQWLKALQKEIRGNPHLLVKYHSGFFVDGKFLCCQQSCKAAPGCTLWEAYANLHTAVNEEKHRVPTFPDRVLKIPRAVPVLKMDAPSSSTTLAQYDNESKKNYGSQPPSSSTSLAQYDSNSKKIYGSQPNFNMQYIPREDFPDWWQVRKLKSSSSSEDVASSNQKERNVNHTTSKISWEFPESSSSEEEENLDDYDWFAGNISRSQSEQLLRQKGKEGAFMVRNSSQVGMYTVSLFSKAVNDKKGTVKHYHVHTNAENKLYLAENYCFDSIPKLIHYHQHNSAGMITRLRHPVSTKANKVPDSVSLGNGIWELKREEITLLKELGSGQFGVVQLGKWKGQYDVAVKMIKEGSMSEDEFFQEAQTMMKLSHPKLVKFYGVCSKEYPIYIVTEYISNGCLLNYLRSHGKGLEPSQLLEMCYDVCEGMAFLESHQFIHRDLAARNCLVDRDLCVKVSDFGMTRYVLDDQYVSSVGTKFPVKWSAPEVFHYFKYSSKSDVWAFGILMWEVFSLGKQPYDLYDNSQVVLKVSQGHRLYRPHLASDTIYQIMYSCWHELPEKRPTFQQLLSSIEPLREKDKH
Sequence of Dual specificity mitogen-activated protein kinase kinase 5 (Homo sapiens) (Q13163 whole entry): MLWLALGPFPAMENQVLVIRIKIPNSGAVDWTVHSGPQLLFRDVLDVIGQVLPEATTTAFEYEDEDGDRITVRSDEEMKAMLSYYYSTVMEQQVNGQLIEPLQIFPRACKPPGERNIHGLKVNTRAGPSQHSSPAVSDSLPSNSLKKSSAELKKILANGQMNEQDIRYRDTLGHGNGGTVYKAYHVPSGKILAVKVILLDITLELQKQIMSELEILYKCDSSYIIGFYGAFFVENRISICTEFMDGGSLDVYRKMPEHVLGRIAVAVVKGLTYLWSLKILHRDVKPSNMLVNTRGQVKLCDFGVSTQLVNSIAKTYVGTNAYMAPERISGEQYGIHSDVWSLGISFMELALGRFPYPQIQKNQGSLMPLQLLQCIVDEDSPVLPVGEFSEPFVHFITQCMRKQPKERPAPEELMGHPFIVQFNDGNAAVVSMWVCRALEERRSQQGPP
Sequence of Tyrosine-protein kinase BTK (Q06187 whole entry, the tested form may be a part): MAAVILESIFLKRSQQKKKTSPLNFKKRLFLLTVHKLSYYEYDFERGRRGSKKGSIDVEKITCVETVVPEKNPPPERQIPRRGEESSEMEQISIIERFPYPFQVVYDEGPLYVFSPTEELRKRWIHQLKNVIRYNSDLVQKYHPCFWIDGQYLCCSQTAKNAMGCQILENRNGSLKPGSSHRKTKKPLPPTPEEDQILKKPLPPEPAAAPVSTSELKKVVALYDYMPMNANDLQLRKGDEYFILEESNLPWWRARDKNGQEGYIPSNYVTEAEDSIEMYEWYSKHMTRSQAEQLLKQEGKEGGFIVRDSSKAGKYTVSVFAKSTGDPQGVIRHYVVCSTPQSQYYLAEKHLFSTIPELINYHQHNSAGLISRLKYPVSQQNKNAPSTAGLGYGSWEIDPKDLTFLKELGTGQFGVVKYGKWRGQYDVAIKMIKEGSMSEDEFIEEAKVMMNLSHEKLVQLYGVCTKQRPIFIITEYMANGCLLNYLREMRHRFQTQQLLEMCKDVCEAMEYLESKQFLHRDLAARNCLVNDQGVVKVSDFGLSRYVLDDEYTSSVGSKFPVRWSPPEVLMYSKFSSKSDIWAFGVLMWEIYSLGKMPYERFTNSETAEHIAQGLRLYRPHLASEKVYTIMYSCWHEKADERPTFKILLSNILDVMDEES

In the case of `C=CC(=O)N1CCC[C@@H](n2nc(-c3ccc(OCc4ccccn4)c(Cl)c3)c3c(N)ncnc32)C1`, in series [1], the CL/F worked out at 406 mL/min/kg. In series [2], the AUCt fell in the range of 130 to 415 ng/mL/h. The IC50 in [3] came to 24.5 nM; in series [4] it was 3.2 nM; in series [6], 8.1 nM; in [13] it was 111 nM; in series [14], 161 nM. The MRT inf in series [5] is 12.6 min. Moreover, the “inhibition (INH)” value in series [7] and in series [11] was “Not Active” in each case. Also, the GI50 in series [8] was more than 10000 nM. The Activity in series [9] is 0.95%; in series [15], 0.4%; in [16], 0%; in series [17], 0.1%. For the same molecule, the EC50 in series [10] and in series [12] was less than 10 nM in each case. This molecule registered a bioavailability in [18] of 10.3%. In series [19], this molecule registered an AUC of 441 ng·h/mL.
